Experimental data: patent US20200281209A1, “STABILIZED EMULSIONS” (Suncor Energy Inc., priority 2016, published 2020)
Values belong to the molecule of their own block, whether it stands above or below them.

Test: Emulsification test after simulated long term storage at 50° C. (Testing Example 6)
Type: physicochemical
Conditions: for re-emulsification compared with composition with no biocide: after storage at 50° C. for 32 and 70 days
Description: Where required, solutions were preheated to aid in dissolution of surfactants. Once the various components had been dissolved into solution, final oil-in-water emulsion composition were blended using high shear mixing (Polytron, Brinkmann Instruments). For solutions containing monomeric surfactants, solutions were subjected to high shear mixing for 5 minutes, while solutions containing polymeric surfactants were subjected to high shear mixing for 15 minutes. Once blending was completed, samples were assessed for quality of emulsification and then placed at 50° C. for up to 70 days, with additional assessments occurring at different time points throughout the storage period. Quality of emulsification was assessed using the method described below. Samples were placed at 50° C. to accelerate storage stability testing, as 4 weeks at 50° C. is representative of 2 years at ambient temperature (CIPAC MT 46.3). The following method was used to evaluate the tested emulsions. The method was performed using a 100 mL graduated cylinder and a pipette (capable of measuring at least 1 mL). The oil-in-water emulsion compositions evaluated in this example were tested as follows: • 1. If ready-to-use spray oil solutions were under storage conditions (e.g., storage for two weeks at 54° C.), the solution was shaken to allow the contents to re-emulsify. • 2. A graduated cylinder was filled with 100 mL of an oil-in-water emulsion composition, and the amount was adjusted as necessary using a pipette. The test solution was allowed to sit for 15 minutes to permit the emulsion to break and to let the majority of the foam generated in step 1 (FIG. 1A) to disappear before moving to step 3. […] The foam should be allowed to settle before inverting cylinders. Even with inversion of cylinders (vs. shaking), some foaming can occur (FIG. 1(B)). • 3. A stopper was placed on the graduated cylinder and the graduated cylinder was inverted 10 times. It was important to invert and not shake the cylinder to prevent excess foaming. • 4. […] Rating were based on the following scale (1-10). […] Specifically, FIG. 2 is an example of an oil-in-water emulsion composition with a rating of 10 (best) at five minutes after inversion. The solution is a homogeneous, milky emulsion (left) and lacks an oil layer or creaming on the surface (right). […] The solution is a homogeneous, milky emulsion (left), but with creaming and some oil coalescence on surface (right). Finally, FIG. 4 is an example of an oil-in-water emulsion composition with a rating of 1 (worst) at five minutes after inversion. The solution has a cloudy appearance, lacks a homogeneous, milky emulsion (left), and has a layer of large, coalesced oil deposits at the surface of the solution (right). The figures were used in the examples described herein as a reference only.

[1] = Base oil Group III, Alcohol ethoxylate/alkyl glyceride, 70 days of storage (50° C.), 10 = best, 1 = worst

Emulsion Rating (1-10) [1]: 5
SMILES: COC(=O)c1ccc(O)cc1 [Methyl paraben, methyl paraben]
re-emulsification compared with composition with no biocide: improved re-emulsification

Emulsion Rating (1-10) [1]: 5
SMILES: CCCOC(=O)c1ccc(O)cc1 [Propyl paraben, propyl paraben]
re-emulsification compared with composition with no biocide: improved re-emulsification

SMILES: O=C(O)c1ccccc1 [Benzoic acid, benzoic acid]
Emulsion Rating (1-10) (Base oil Group I, Alcohol ethoxylate/alkyl glyceride, 70 days of storage (50° C.)): 6 | Emulsion Rating (1-10) (Base oil Group II, Alcohol ethoxylate/alkyl glyceride, 70 days of storage (50° C.)): 7 | Emulsion Rating (1-10) [1]: 7 | Emulsion Rating (1-10) (Base oil Group III, Alkyl polysaccharide, 27 days of storage (50° C.)): 8 | Emulsion Rating (1-10) (Base oil Group III, Block copolymer, 27 days of storage (50° C.)): 8 | Emulsion Rating (1-10) (Base oil Group III, Polyoxyethylene amine quarternary/alkyl glyceride, 27 days of storage (50° C.)): 4 | Emulsion Rating (1-10) (Base oil Group III, Random polymeric/Block copolymer, 64 days of storage (50° C.)): 5 | Emulsion Rating (1-10) (Base oil Group IV, Alcohol ethoxylate/alkyl glyceride, 70 days of storage (50° C.)): 6 | re-emulsification compared with composition with no biocide: improved re-emulsification | effect on re-emulsification, single surfactant (alcohol ethoxylate, amine alkybenzenesulfonate (anionic), polyoxyethylene amine quarternary (cationic) or polyethylene glycol): no impact | effect on re-emulsification, single surfactant (alkyl glyceride, random polymeric, sorbitan monooleate, sorbitan fatty acid ester, or dodecyl phenol): negatively affected | effect on re-emulsification, single surfactant (block copolymer or alkyl polysaccharide surfactant): improved re-emulsification | effect on re-emulsification, surfactant pairs (dodecyl phenol + alcohol ethoxylate, alcohol ethoxylate + amine alkylbenzenesulfonate (anionic), sorbitan monooleate + polyoxyethylene (20) sorbitan monooleate): no impact | re-emulsification compared with compositions without benzoic acid (group I, group II, group III, and group IV (poly-alpha-olefins) base oils): improved re-emulsification | effect on re-emulsification, surfactant pairs (polyethylene glycol monostearate + alkyl glyceride, alkyl polysaccharide + alkyl glyceride): negatively affected | effect on re-emulsification, surfactant pairs (random polymeric + block copolymer (64 days), polyoxyethylene amine quarternary + alkyl glyceride (27 days), alcohol ethoxylate + alkyl glyceride (70 days), 50° C.): improved re-emulsification

SMILES: O=C([O-])c1ccccc1.[Na+] [Sodium benzoate, sodium benzoate]
Emulsion Rating (1-10) [1]: 6 | re-emulsification compared with composition with no biocide: improved re-emulsification

SMILES: C/C=C/C=C/C(=O)O [sorbic acid, reference compound]
re-emulsification compared with composition with no biocide: comparable or worse emulsification quality
